Counter-ions that a name gives are not always drawn.
Experiment: in vitro
Conditions: human, hek293t cells

**Q.** With `CCC(C)(C)C1CCc2c(sc(NC(=O)CCl)c2C#N)C1` (stereo not drawn) [5-A05, 2-chloro-N-[3-cyano-6-(2-methylbutan-2-yl)-4,5,6,7-tetrahydro-1-benzothiophen-2-yl]acetamide] as the compound, how does the viability at 48 h, 25 µM read?
**A.** -0.0335%

**Q.** Which viability at 48 h, 25 µM does the source give for `O=C(CCl)NCC(=O)Nc1ccc(F)c(F)c1` [4-L16, 2-chloro-N-{[(3,4-difluorophenyl)carbamoyl]methyl}acetamide] here?
**A.** 1.48%

**Q.** For `O=C(CCl)Nc1ccnn1Cc1cccs1` [5-O13, 2-chloro-N-{1-[(thiophen-2-yl)methyl]-1H-pyrazol-5-yl}acetamide], which viability at 48 h, 25 µM is on record?
**A.** 0.591%

**Q.** For `C=CC(=O)N1CCC(C(=O)Nc2cccc(N3CCCC3=O)c2)CC1` [2-H04, N-[3-(2-oxopyrrolidin-1-yl)phenyl]-1-(prop-2-enoyl)piperidine-4-carboxamide], which viability at 48 h, 25 µM is on record?
**A.** 84.3%

**Q.** Which viability at 48 h, 25 µM does the source give for `CC(Cl)C(=O)NCc1nnc(C2CCC2)n1C` (stereo not drawn) [7-A10, 2-chloro-N-[(5-cyclobutyl-4-methyl-4H-1,2,4-triazol-3-yl)methyl]propanamide] here?
**A.** 87.1%

**Q.** Which viability at 48 h, 25 µM does the source give for `Cc1nccn1Cc1ccc(NC(=O)C(C#N)=Cc2ccco2)cc1` [9-H12, 2-cyano-3-(furan-2-yl)-N-{4-[(2-methyl-1H-imidazol-1-yl)methyl]phenyl}prop-2-enamide] here?
**A.** 93%

**Q.** With `COC1(CNC(=O)CCl)CCC(C(F)F)CC1` (stereo not drawn) [6-D21, 2-chloro-N-{[4-(difluoromethyl)-1-methoxycyclohexyl]methyl}acetamide] as the compound, how does the viability at 48 h, 25 µM read?
**A.** 52.3%

**Q.** With `COc1ccc([N+](=O)[O-])cc1N1C(=O)C=CC1=O` [10-P13, 1-(2-methoxy-5-nitrophenyl)-2,5-dihydro-1H-pyrrole-2,5-dione] as the compound, how does the viability at 48 h, 25 µM read?
**A.** 102%

**Q.** For `COc1cc(Cl)c(C)cc1NC(=O)C(C#N)=CC=Cc1ccccc1` [8-A21, N-(4-chloro-2-methoxy-5-methylphenyl)-2-cyano-5-phenylpenta-2,4-dienamide], which viability at 48 h, 25 µM is on record?
**A.** 82%

**Q.** For `C=CC(=O)N1CCC(C(=O)NCc2c[nH]cn2)CC1` [2-G10, N-[(1H-imidazol-4-yl)methyl]-1-(prop-2-enoyl)piperidine-4-carboxamide], which viability at 48 h, 25 µM is on record?
**A.** 98.7%

**Q.** For `C=CC(=O)N1CCC(C(=O)N(CC)Cc2occc2C)CC1` [2-L08, N-ethyl-N-[(3-methylfuran-2-yl)methyl]-1-(prop-2-enoyl)piperidine-4-carboxamide], which viability at 48 h, 25 µM is on record?
**A.** 88.8%

**Q.** With `CC(Cl)C(=O)N1CCN(Cc2ccc3ccccc3n2)CC1` (stereo not drawn) [7-A15, 2-chloro-1-{4-[(quinolin-2-yl)methyl]piperazin-1-yl}propan-1-one] as the compound, how does the viability at 48 h, 25 µM read?
**A.** 83.2%

**Q.** For `CS(=O)(=O)c1ccc(C(=O)CCl)cc1` [10-I13, 2-chloro-1-(4-methanesulfonylphenyl)ethan-1-one], which viability at 48 h, 25 µM is on record?
**A.** 65.1%

**Q.** Which viability at 48 h, 25 µM does the source give for `C=CC(=O)Nc1cc(C(=O)O)ccc1O` [1-A12, 4-hydroxy-3-(prop-2-enamido)benzoic acid] here?
**A.** 75.1%

**Q.** With `Cc1cc(C)c(C=C(C#N)C(=O)Nc2nccs2)cc1C` [8-P21, 2-cyano-N-(1,3-thiazol-2-yl)-3-(2,4,5-trimethylphenyl)prop-2-enamide] as the compound, how does the viability at 48 h, 25 µM read?
**A.** 113%

**Q.** For `NC(=O)c1cc(-c2ccccc2)sc1NC(=O)CCl` [6-M14, 2-(2-chloroacetamido)-5-phenylthiophene-3-carboxamide], which viability at 48 h, 25 µM is on record?
**A.** 0.446%

**Q.** For `C=CC(=O)N1CCC(c2ccc(OC)c(F)c2)C1` (stereo not drawn) [3-K19, 1-[3-(3-fluoro-4-methoxyphenyl)pyrrolidin-1-yl]prop-2-en-1-one], which viability at 48 h, 25 µM is on record?
**A.** 48.9%

**Q.** For `C=CC(=O)NCC(O)c1ncccc1OC` (stereo not drawn) [2-J11, N-[2-hydroxy-2-(3-methoxypyridin-2-yl)ethyl]prop-2-enamide], which viability at 48 h, 25 µM is on record?
**A.** 80.8%

**Q.** Which viability at 48 h, 25 µM does the source give for `C=CC(=O)NC1CCCN(C2CCCCC2)C1=O` (stereo not drawn) [3-O18, N-(1-cyclohexyl-2-oxopiperidin-3-yl)prop-2-enamide] here?
**A.** 92.1%

**Q.** For `C=CC(=O)N(CC)CC(=O)N1CCCC(N2CCCS2(=O)=O)C1` (stereo not drawn) [3-I08, N-{2-[3-(1,1-dioxo-1lambda6,2-thiazolidin-2-yl)piperidin-1-yl]-2-oxoethyl}-N-ethylprop-2-enamide], which viability at 48 h, 25 µM is on record?
**A.** 91.2%

**Q.** Which viability at 48 h, 25 µM does the source give for `CCCn1c(C)cc(C=C(C#N)C(=O)N2CCCCC2)c1C` [9-D11, 3-(2,5-dimethyl-1-propyl-1H-pyrrol-3-yl)-2-(piperidine-1-carbonyl)prop-2-enenitrile] here?
**A.** 106%

**Q.** For `Cc1cc(Cl)ccc1CN1CCN(C(=O)C(C)Cl)CC1` (stereo not drawn) [5-B13, 2-chloro-1-{4-[(4-chloro-2-methylphenyl)methyl]piperazin-1-yl}propan-1-one], which viability at 48 h, 25 µM is on record?
**A.** 94.8%

**Q.** Which viability at 48 h, 25 µM does the source give for `CSc1ccccc1NC(=O)CCl` [4-E11, 2-chloro-N-[2-(methylsulfanyl)phenyl]acetamide] here?
**A.** 0.595%

**Q.** For `N#CC(=Cc1ccc(OC(F)F)cc1)C(=O)Nc1cccnc1` [9-K04, 2-cyano-3-[4-(difluoromethoxy)phenyl]-N-(pyridin-3-yl)prop-2-enamide], which viability at 48 h, 25 µM is on record?
**A.** 115%

**Q.** For `O=C(CCl)NC1c2ccccc2CCC1n1ccnc1` (stereo not drawn) [7-N14, 2-chloro-N-[2-(1H-imidazol-1-yl)-1,2,3,4-tetrahydronaphthalen-1-yl]acetamide hydrochloride], which viability at 48 h, 25 µM is on record?
**A.** 95.8%

**Q.** For `CCN1C(=O)CC[C@H](CNC(=O)C(C)Cl)[C@H]1c1cnn(C)c1` (mixture of isomers) [6-L13, rac-2-chloro-N-{[(2R,3S)-1-ethyl-2-(1-methyl-1H-pyrazol-4-yl)-6-oxopiperidin-3-yl]methyl}propanamide], which viability at 48 h, 25 µM is on record?
**A.** 100%

**Q.** Which viability at 48 h, 25 µM does the source give for `COCc1ncc2c(n1)CC1CCC2N1C(=O)C(C)Cl` (stereo not drawn) [7-M20, 2-chloro-1-[5-(methoxymethyl)-4,6,12-triazatricyclo[7.2.1.0,2,7]dodeca-2,4,6-trien-12-yl]propan-1-one] here?
**A.** 77%

**Q.** For `COc1cc(C=C(C#N)C(=O)NC(C)C)cc(OC)c1` [8-F15, 2-cyano-3-(3,5-dimethoxyphenyl)-N-(propan-2-yl)prop-2-enamide], which viability at 48 h, 25 µM is on record?
**A.** 82.4%

**Q.** For `O=C(CCl)N1c2ccc(F)cc2NC(=O)C12CCC2` [5-K09, 1'-(2-chloroacetyl)-6'-fluoro-3',4'-dihydro-1'H-spiro[cyclobutane-1,2'-quinoxalin]-3'-one], which viability at 48 h, 25 µM is on record?
**A.** 0.346%

**Q.** For `N#CC(=Cc1csc2ccccc12)C(=O)NCc1ccco1` [9-D16, 3-(1-benzothiophen-3-yl)-2-cyano-N-[(furan-2-yl)methyl]prop-2-enamide], which viability at 48 h, 25 µM is on record?
**A.** 108%

**Q.** With `C=CC(=O)Nc1nc(Cc2ccccc2)c(C)s1` [1-B16, N-(4-benzyl-5-methyl-1,3-thiazol-2-yl)prop-2-enamide] as the compound, how does the viability at 48 h, 25 µM read?
**A.** 73.2%

**Q.** For `C=CC(=O)N1CCCC(C(=O)O)C1` (stereo not drawn) [1-G12, 1-(prop-2-enoyl)piperidine-3-carboxylic acid], which viability at 48 h, 25 µM is on record?
**A.** 60.4%

**Q.** With `N#CC(=Cc1ccsc1)C(=O)Nc1ccccc1Cl` [9-O05, N-(2-chlorophenyl)-2-cyano-3-(thiophen-3-yl)prop-2-enamide] as the compound, how does the viability at 48 h, 25 µM read?
**A.** 150%

**Q.** Which viability at 48 h, 25 µM does the source give for `Cc1cc(CN(Cc2cnn(C)c2)C(=O)CCl)ccc1Cl` [5-G12, 2-chloro-N-[(4-chloro-3-methylphenyl)methyl]-N-[(1-methyl-1H-pyrazol-4-yl)methyl]acetamide] here?
**A.** -0.0746%

**Q.** With `CC(NC(=O)c1ccccc1NC(=O)CCl)c1ccccc1` (stereo not drawn) [4-B07, 2-(2-chloroacetamido)-N-(1-phenylethyl)benzamide] as the compound, how does the viability at 48 h, 25 µM read?
**A.** 0.478%

**Q.** Which viability at 48 h, 25 µM does the source give for `Cc1c(C#N)c(NC(=O)CCl)n(Cc2ccccc2)c1C` [4-M21, N-(1-benzyl-3-cyano-4,5-dimethyl-1H-pyrrol-2-yl)-2-chloroacetamide] here?
**A.** -0.247%

**Q.** For `Cc1c(C=C(C#N)C(=O)NCc2ccccc2)cc(C#N)n1C` [9-I15, N-benzyl-2-cyano-3-(5-cyano-1,2-dimethyl-1H-pyrrol-3-yl)prop-2-enamide], which viability at 48 h, 25 µM is on record?
**A.** 134%

**Q.** For `O=C(CCl)Nc1ncc(Cc2ccccc2Cl)s1` [4-P07, 2-chloro-N-{5-[(2-chlorophenyl)methyl]-1,3-thiazol-2-yl}acetamide], which viability at 48 h, 25 µM is on record?
**A.** -0.245%

**Q.** With `CN(CC(=O)NCc1ccco1)C(=O)CCl` [4-A18, 2-chloro-N-({[(furan-2-yl)methyl]carbamoyl}methyl)-N-methylacetamide] as the compound, how does the viability at 48 h, 25 µM read?
**A.** 0.0249%

**Q.** Which viability at 48 h, 25 µM does the source give for `CC(Cl)C(=O)N(C)CCOc1ccc(Cl)cc1` (stereo not drawn) [6-C12, 2-chloro-N-[2-(4-chlorophenoxy)ethyl]-N-methylpropanamide] here?
**A.** 81.3%

**Q.** Which viability at 48 h, 25 µM does the source give for `Cc1cc(C(=O)CCl)c(C)s1` [10-K16, 2-chloro-1-(2,5-dimethylthiophen-3-yl)ethan-1-one] here?
**A.** 0.769%

**Q.** For `O=C(CCl)NC(c1ccc(F)c(C(F)(F)F)c1)C1CC1` (stereo not drawn) [7-B22, 2-chloro-N-{cyclopropyl[4-fluoro-3-(trifluoromethyl)phenyl]methyl}acetamide], which viability at 48 h, 25 µM is on record?
**A.** 0.631%

**Q.** Which viability at 48 h, 25 µM does the source give for `NC(=O)CCN(C(=O)CCl)c1ccc(F)cc1` [5-C03, 3-[2-chloro-N-(4-fluorophenyl)acetamido]propanamide] here?
**A.** 1.62%

**Q.** Which viability at 48 h, 25 µM does the source give for `C=CC(=O)N1CCCC2(CCCOC2)C1` (stereo not drawn) [3-E11, 1-{2-oxa-8-azaspiro[5.5]undecan-8-yl}prop-2-en-1-one] here?
**A.** 46.3%

**Q.** Which viability at 48 h, 25 µM does the source give for `C=CC(=O)NCc1ccc(N2CCCC(C(N)=O)C2)cc1` (stereo not drawn) [1-P19, 1-{4-[(prop-2-enamido)methyl]phenyl}piperidine-3-carboxamide] here?
**A.** 126%

**Q.** For `CC(Cl)C(=O)Nc1ccc2c(c1)CCC2` (stereo not drawn) [5-C19, 2-chloro-N-(2,3-dihydro-1H-inden-5-yl)propanamide], which viability at 48 h, 25 µM is on record?
**A.** 68.8%

**Q.** For `O=C(CCl)N1N=C(c2ccco2)CC1c1cccc(Cl)c1` (stereo not drawn) [5-M17, 2-chloro-1-[5-(3-chlorophenyl)-3-(furan-2-yl)-4,5-dihydro-1H-pyrazol-1-yl]ethan-1-one], which viability at 48 h, 25 µM is on record?
**A.** 0.403%

**Q.** With `CCc1cc(SC#N)cc(CC)c1NC(=O)CCl` [4-J12, 2-chloro-N-[4-(cyanosulfanyl)-2,6-diethylphenyl]acetamide] as the compound, how does the viability at 48 h, 25 µM read?
**A.** 84.8%

**Q.** Which viability at 48 h, 25 µM does the source give for `C=CC(=O)NC(C)C(c1ccccc1Cl)n1cccn1` (stereo not drawn) [2-J05, N-[1-(2-chlorophenyl)-1-(1H-pyrazol-1-yl)propan-2-yl]prop-2-enamide] here?
**A.** 84.5%

**Q.** For `O=C(CCl)Nc1ccc(Cl)c(C(F)(F)F)c1` [4-I09, 2-chloro-N-[4-chloro-3-(trifluoromethyl)phenyl]acetamide], which viability at 48 h, 25 µM is on record?
**A.** 0.299%

**Q.** For `COC(=O)c1ccc(C=C(C#N)C(=O)NC(C)C)n1C` [9-P12, methyl 5-{2-cyano-2-[(propan-2-yl)carbamoyl]eth-1-en-1-yl}-1-methyl-1H-pyrrole-2-carboxylate], which viability at 48 h, 25 µM is on record?
**A.** 115%

From publication PMC11995724, “Antibiotic target discovery by integrated phenotypic and activity-based profiling of electrophilic fragments” (Cell chemical biology, 2025)
